Counter-ions that a name gives are not always drawn.
Columns and labels:
[1] = tested on: ileum; assay: TRANSTAT: ileal expression by qPCR in 18-week microbiota donor mice; assay type: in vivo, C57BL6J mice; conditions: 18-week STAT-donor mice vs control donors
Description: Total RNA was extracted from mouse tissues using the RNeasy Mini Kit (Qiagen), according to the manufacturer's instructions. Total RNA was reverse transcribed to cDNA using the Verso™ cDNA Synthesis Kit (Thermo Scientific). To generate standards for expression analysis of each target gene, the cDNA region of interest was PCR-amplified and the PCR product was cloned into pGEM-T easy (Promega). qPCR was performed with LightCycler 480 SYBR Green I Master mix (Roche) and run in a LightCycler 480 system (Roche). Target mRNA was normalized to GAPDH mRNA as an internal control in each sample.
C57BL/6J (Jackson Labs, Bar Harbor, Me.) mice either received no antibiotics (control) or continuous STAT penicillin. Mice were weaned at 4 weeks onto normal chow (13.2% fat, 5053 PicoLab Rodent Diet 20, LabDiet, Brentwood, Mo.), then changed to a high fat diet (45% kcal from fat, D12451, Research Diets, New Brunswick, N.J.) at 6 weeks of life. At 18 weeks of age, from each group (Control, n=9; STAT, n=8), the three animals with weight at or closest to the median were selected as cecal content donors. Donor mice were humanely euthanized, and the proximal ⅓ of the cecum was aseptically removed and after a series of processing steps, either the pooled Control or STAT microbiota suspensions were placed in the stomachs of the germ-free recipients (Control, n=7 recipients; STAT, n=8) by oral gavage. Recipients were chosen randomly, and the inoculum alternated between control and STAT recipients. […] The microbiota-recipient mice were housed in autoclaved cages, under specific pathogen-free conditions, and fed an irradiated high fat diet (45% kcal from fat, D12451, Research Diets, New Brunswick, N.J.), and followed for the next 35 days until sacrifice. Fecal pellets were collected serially from the time of transfer.
Mice were fed normal chow, then switched to high fat diet at 6 weeks of age. At 18 weeks, cecal contents were collected from 3 control and 3 STAT mice, based on their median weight, pooled, and transferred to 3-4 week old germ-free Swiss Webster mice by oral gavage. Every attempt was made to maintain viability of the microbiota by protecting the microbiota from oxygen and minimizing time between microbiota collection and transfer. Microbiota recipient mice were monitored for 5 weeks, then ileal samples were collected to assess immunity by flow cytometry and qPCR. Ileal gene expression was also measured by microarray and Nanostring Immunology Panel (FIG. 13).
Expression levels were measured by qPCR and normalized by GAPDH expression.

[2] = tested on: CD3+CD4+ lamina propria lymphocytes; assay: Flow cytometry of lamina propria lymphocytes for Th17-produced cytokines, 8-week STAT; assay type: in vivo, C57BL/6J mice; conditions: small and large intestine, STAT vs control
Source text: Lamina propria lymphocytes (LPL) from both small and large intestine were isolated from 8-week STAT mice (Control n=4, STAT n=4) and analyzed for intracellular, Th17-produced cytokines by flow cytometry. Plots gated on CD3+CD4+LPL. IL-17^+ and IL-22^+ cells were decreased in STAT compared to control mice in both the small and large intestine (FIG. 5).
Small and large intestines of mice were dissected, and all mesenteric fat and Peyer's patches were removed. Intestines were fileted for removal of stool, cut into 2 cm pieces, and washed with PBS. Tissues were transferred to tubes with 10 ml 1 mM DTT/PBS, shaken at RT for 10 minutes, and transferred to tubes with 30 mM EDTA and 10 mM HEPES in PBS. Intestines were then shaken at 37° C. for 20 minutes and washed in complete RPMI. The small and large intestines were digested at 37 C for 1.5 hours in 100 units/ml collagenase Type VIII (Sigma) and 150 μg/ml DNase (Sigma) in complete RPMI. Cells were filtered through a 50 micron filter, washed with 5 ml PBS, and pelleted. Cells were then resuspended in 40% Percoll (GE Healthcare), under-layed with 80% Percoll, and centrifuged at 2,200 rpm for 20 min at RT. […]
Cells were stimulated with phorbol 12-myristate 13-acetate (PMA) and ionomycin for 4 hours at 37 C with the addition of GolgiPlug (BD). […] Cells were acquired on an LSRII (BD) and analyzed with FlowJo (Tree Star, Inc.) software.

[3] = tested on: terminal ileum; assay: PAT: ileal expression by qPCR in 6-week mice; assay type: in vivo, C57BL/6 mice; conditions: 6-week male mice, 3 pulses, vs control, p<0.05

SMILES	ileal expression of IL-17A [1]	ileal expression of IL-17F [1]	ileal expression of RORγt [1]	ileal expression of Reg3γ [1]	ileal expression of defensin β1 [1]	IL-17+ cells among CD3+CD4+ LPL [2]	IL-22+ cells among CD3+CD4+ LPL [2]	ileal Relmβ expression [3]
CC1(C)S[C@@H]2[C@H](NC(=O)COc3ccccc3)C(=O)N2[C@H]1C(=O)[O-].[K+] [STAT, penicillin VK]	significantly down-regulated	downward trend	downward trend	significantly down-regulated	significantly down-regulated	decreased	decreased	–
CC[C@H]1OC(=O)C[C@@H](O)[C@H](C)[C@@H](O[C@@H]2O[C@H](C)[C@@H](O[C@H]3C[C@@](C)(O)[C@@H](O)[C@H](C)O3)[C@H](N(C)C)[C@H]2O)[C@@H](CC=O)C[C@@H](C)C(=O)/C=C/C(C)=C/[C@@H]1CO[C@@H]1O[C@H](C)[C@@H](O)[C@@H](OC)[C@H]1OC [Tylosin, Tylosin tartrate]	–	–	–	–	–	–	–	significantly lower

From patent publication US20160120915A1, “METHODS FOR MANIPULATING IMMUNE RESPONSES BY ALTERING MICROBIOTA” (NEW YORK UNIVERSITY, priority 2013, published 2016)
